In patent publication US10072005B2, “4-azaindole derivatives” (EISAI R&D MANAGEMENT CO., LTD., priority 2013, dated 2018):

Key:
mAChR M1 = mAChR M1 (Homo sapiens, UniProt P11229); assay: In vitro cellular calcium flux assay, positive allosteric modulation of mAChR M1; format: cell-based; conditions: BHK cells expressing mAChR M1; EC20 carbachol; Examples 76-80 and 82-89 slightly modified procedure
Outline: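 Baby hamster kidney cells stably expressing human mAChR M1, loaded with Calcium 4 dye in HBSS/20 mM HEPES/2.5 mM probenecid for 30 min at 37 °C. An 11-point 1-in-3 compound dilution series was added and calcium rise read as fluorescence; positive allosteric modulator pEC50 and antagonist pIC50 derived.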

Male Lister Hooded rats = assay: Novel Object Recognition test; format: in vivo; conditions: rat, 24 h delay
Description: The Novel Object Recognition test (NOR) is based on the greater spontaneous exploration of a novel object, compared with a familiar object, observed in rodents (Behav. Brain Res., 1988, 31(1), 47-59). […] Therefore, it is considered to be analogous to recognition memory tests used in human clinical testing. Male Lister Hooded rats were assessed for object recognition in a test apparatus comprising of a perspex test arena housed within a sound attenuating chamber. Video images of behaviour were captured by digital camera and recorded to a computer. Rats were habituated to the test arena on four occasions prior to testing. Habituation sessions replicated the test day sequence exactly with the exception of object presentation. On test days, each rat was placed into the test arena and 3 minutes later the rat was presented with two identical objects (plastic shapes). The time spent actively exploring the objects during a 3-minute test period (T1) was recorded. Following T1 rats were returned to home cages. After 24 hours each rat was again placed in the test arena and 3 minutes later was presented with one of the now familiar objects and a novel object, and again the time spent actively exploring the objects during a 3-minute test period (T2) was recorded. The presentation order and position of objects (left/right) was randomised within groups to prevent bias from order or place preference. Objects were cleaned with 70% ethanol solution between trials to remove any olfactory/taste cues. Compounds were administered by oral gavage at an appropriate pre-treatment time prior to T1 and T2 (n=12) at dosage ranges between 0.03 and 3 mg/kg. In some experiments the 5-HT6 receptor antagonist N-(3,5-dichloro-2-methoxyphenyl)-4-methoxy-3-(piperazin-1-yl)benzenesulfonamide (CAS 402713-80-8) (10 mg/kg p.o.; 4 h pre-treatment time) was included as a positive control. Vehicle controls (1% methylcellulose in water) were included for comparison in each study. Results are expressed as the d2 index (difference in time spent exploring novel and familiar objects/total object exploration in T2).

Chain of mAChR M1 (P11229 whole entry, looked up): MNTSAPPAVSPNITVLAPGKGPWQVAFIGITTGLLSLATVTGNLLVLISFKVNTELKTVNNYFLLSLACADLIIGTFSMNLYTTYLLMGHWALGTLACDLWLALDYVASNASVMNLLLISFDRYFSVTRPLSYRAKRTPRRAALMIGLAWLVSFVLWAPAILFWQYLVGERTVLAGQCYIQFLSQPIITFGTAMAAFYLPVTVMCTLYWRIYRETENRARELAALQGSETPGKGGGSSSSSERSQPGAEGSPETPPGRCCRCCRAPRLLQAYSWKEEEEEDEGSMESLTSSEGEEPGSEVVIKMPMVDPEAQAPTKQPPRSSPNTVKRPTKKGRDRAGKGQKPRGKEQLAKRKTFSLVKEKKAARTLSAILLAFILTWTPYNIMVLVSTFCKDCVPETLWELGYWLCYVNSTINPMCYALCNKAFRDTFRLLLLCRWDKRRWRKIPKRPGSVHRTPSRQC

`O=C(N[C@H]1CCCC[C@@H]1O)c1cn(Cc2ccc(F)cc2)c2cccnc12` [Example 5, 1-(4-Fluorobenzyl)-N-((1S,2S)-2-hydroxycyclohexyl)-1H-pyrrolo[3,2-b]pyridine-3-carboxamide] was tested, and the “pEC50 for positive allosteric modulation” value (mAChR M1) was 6.9, the “d2 index [mean ± SEM]” value (Male Lister Hooded rats; 0.03 mg/kg p.o.) was “[0.04 ± 0.06]” and the “d2 index [mean ± SEM]” value (Male Lister Hooded rats; 0.1 mg/kg p.o.) was “[0.20 ± 0.05]**”. The “d2 index [mean ± SEM]” value (Male Lister Hooded rats; 0.3 mg/kg p.o.) was “[0.28 ± 0.05]***”.
